Results from patent publication US11117892B2, “Pyrrolo-pyridine derivative compound, method for preparing same, and pharmaceutical composition containing same as active ingredient for prevention or treatment of protein kinase-related diseases” (DAEGU-GYEONGBUK MEDICAL INNOVATION FOUNDATION, priority 2017, dated 2021).

Key:
5× FAD mice [1] = assay: novel object recognition test, long term cognitive function; assay type: in vivo; details: 20 mg/kg i.p. every day for 2 weeks, vs non-treated group
Description: Novel object recognition test is an experiment to test the memory of perception of an object. Mice were let to see two identical objects. After a certain period of time had passed (several hours˜a week), the mice were let to see a novel object together with the object previously presented. Then, how much those mice were interested in the novel object and studied it was evaluated, leading to the evaluation of long term memory of the previous object.
Two objects which were the same in the shape and in the size (F, F) were placed in a specific corner of the open field box (42×42×42 cm) made that the outside is not invisible from the inside, and a test mouse was started from the center of the box. Then, the number and time of the test mouse touching those two objects were recorded for 5 minutes (Acquisition). 24 hours later, one of those two objects was replaced with a new one (F, N). The number and time of access to the original object (F) and the new object (N) were recorded and digitized (Discrimination). Preference for the object (p) was calculated by (time to approach to a certain object)/(total time to approach to two objects). FIG. 10(a) presents the schematic diagram of novel object recognition test, and FIG. 10(b) presents the calculation results.

5× FAD mice [2] = assay: Tau phosphorylation (AT180 immunohistochemistry) in Alzheimer's disease animal model; assay type: in vivo; details: 20 mg/kg i.p. every day for 2 weeks, vs vehicle
Description: 2 weeks later, immunohistochemistry was performed using AT180, one of Tau phosphorylation antibodies, and as a result confocal microscope images were obtained. Quantitative analysis with the images was performed using image j software.

mouse pancreatic β-cell = mouse pancreatic β-cell proliferation (Ki-67/insulin staining); assay type: cell-based
Description: It is known that when human β-cells are treated with harmine that inhibits DYRK1A, the proliferation of β-cells is promoted by increasing the transcription factor activity by inhibiting the phosphorylation of NFAT known as a phosphorylation substrate of DYRK1A.
Particularly, pancreatic Langerhans islet tissues were extracted from the mouse at 8 weeks old, followed by culture in RPMI1640 medium supplemented with 10% FCS (fetal calves serum), 5.5 mM glucose and 1% penicillin-streptomycin for 24 hours.
Next, in order to separate β-cells as single cells from the Langerhans islet, cells were washed twice with PBS, followed by centrifugation. The collected cells were left in the medium supplemented with 1 mg/ml of trypsin for 10 minutes at 37° C. The cells were shaken using a pipette every 10 seconds for 5 minutes. Trypsin reaction was terminated by adding RPMI1640 containing 10% FCS (fetal calves serum), 5.5 mM glucose and 1% penicillin-streptomycin, followed by centrifugation to collect single cells.
Then, the single cells were loaded on the laminin-coated cover glass and stabilized for 24 hours. The cells were cultured in the medium containing the compound of the present invention for 72 hours. […] The cells double-stained with Ki-67/insulin were counted under Olympus F-1000 confocal fluorescence microscope to investigate cell proliferation.

5× FAD mice [3] = assay: Y-maze behavioral test, short term cognitive function; assay type: in vivo; details: 20 mg/kg i.p. every day for 2 weeks, vs non-treated group
Description: Then, the mice were placed in Y-maze composed of three arms abutting 120°, and each arm was lifted sequentially for five minutes to calculate the number of alternation triplets to see how well the mice remembered where they visited.
The equipment used for Y-maze test is composed of three arms. The length of each arm was 42 cm, the width thereof was 3 cm and the height was 12 cm. The angle of contact between the three arms is 120°. All experimental devices were made of black polyvinyl plastic. Each arm was assigned with A, B and C. A test mouse was carefully located in one arm and let move freely for 8 minutes. Then, the arm which the test mouse entered was recorded. At this time, the ‘enter’ means the case when the mouse tail was completely in. If the mouse entered an arm where it had already visited, the case was also recorded. If the mouse entered three different arms one by one (actual alternation), one point was given. Alternation behavior was defined by that the mouse entered three different arms stepwise, which was calculated by the following equation. […] [alternation behavior (%)=actual alternation/*maximum alternation×100]
*maximum alternation: total entries−2

CSNK1E = CSNK1E (Homo sapiens (Human), UniProt P49674); assay: scanMAX Kinase assay panel; assay type: binding; details: read-out: % control
CSNK1E, sequence (P49674 whole entry): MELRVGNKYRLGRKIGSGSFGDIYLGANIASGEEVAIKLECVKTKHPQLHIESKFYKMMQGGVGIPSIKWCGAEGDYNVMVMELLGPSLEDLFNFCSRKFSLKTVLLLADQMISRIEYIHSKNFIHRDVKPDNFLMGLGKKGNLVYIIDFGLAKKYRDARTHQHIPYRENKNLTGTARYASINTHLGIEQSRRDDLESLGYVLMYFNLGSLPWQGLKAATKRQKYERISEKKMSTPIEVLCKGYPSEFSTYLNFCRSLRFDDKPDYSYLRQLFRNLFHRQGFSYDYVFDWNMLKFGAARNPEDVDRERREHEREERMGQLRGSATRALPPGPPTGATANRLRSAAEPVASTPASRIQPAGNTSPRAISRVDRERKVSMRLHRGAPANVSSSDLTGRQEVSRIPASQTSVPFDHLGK
In short: (§1)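 % control read-out: DMSO vehicle = 100%, positive control = 0%, test compound scaled between these two. Selectivity profiling was done on the scanMAX kinase panel.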

CDK5 = CDK5 (Homo sapiens (Human), UniProt Q00535); assay: scanMAX Kinase assay panel; assay type: binding; details: read-out: % control
CDK5, sequence (Q00535 whole entry): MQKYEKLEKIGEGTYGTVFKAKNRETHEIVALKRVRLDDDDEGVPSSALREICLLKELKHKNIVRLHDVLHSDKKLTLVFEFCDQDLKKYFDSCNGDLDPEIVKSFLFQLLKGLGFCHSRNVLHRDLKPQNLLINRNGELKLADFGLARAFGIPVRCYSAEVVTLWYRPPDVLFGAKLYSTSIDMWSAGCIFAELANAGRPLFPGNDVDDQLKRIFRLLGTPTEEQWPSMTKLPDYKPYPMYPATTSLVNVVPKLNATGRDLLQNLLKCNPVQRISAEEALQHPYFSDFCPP
In short: as §1

GSK3B = GSK3B (Homo sapiens (Human), UniProt P49841); assay: scanMAX Kinase assay panel; assay type: binding; details: read-out: % control
GSK3B, sequence (P49841 whole entry): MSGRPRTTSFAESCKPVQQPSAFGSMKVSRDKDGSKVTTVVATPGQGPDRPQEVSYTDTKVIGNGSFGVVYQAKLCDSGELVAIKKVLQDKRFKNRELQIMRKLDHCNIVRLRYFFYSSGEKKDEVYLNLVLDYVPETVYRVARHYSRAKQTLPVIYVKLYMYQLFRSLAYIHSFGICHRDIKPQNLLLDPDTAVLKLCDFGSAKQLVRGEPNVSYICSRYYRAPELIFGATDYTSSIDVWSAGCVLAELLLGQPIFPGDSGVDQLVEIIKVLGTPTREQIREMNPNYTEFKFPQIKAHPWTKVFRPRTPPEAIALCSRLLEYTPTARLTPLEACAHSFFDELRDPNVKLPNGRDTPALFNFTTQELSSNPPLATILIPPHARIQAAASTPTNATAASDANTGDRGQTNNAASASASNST
In short: as §1

CLK3 = CLK3 (Homo sapiens (Human), UniProt P49761); assay: scanMAX Kinase assay panel; assay type: binding; details: read-out: % control
CLK3, sequence (P49761 whole entry): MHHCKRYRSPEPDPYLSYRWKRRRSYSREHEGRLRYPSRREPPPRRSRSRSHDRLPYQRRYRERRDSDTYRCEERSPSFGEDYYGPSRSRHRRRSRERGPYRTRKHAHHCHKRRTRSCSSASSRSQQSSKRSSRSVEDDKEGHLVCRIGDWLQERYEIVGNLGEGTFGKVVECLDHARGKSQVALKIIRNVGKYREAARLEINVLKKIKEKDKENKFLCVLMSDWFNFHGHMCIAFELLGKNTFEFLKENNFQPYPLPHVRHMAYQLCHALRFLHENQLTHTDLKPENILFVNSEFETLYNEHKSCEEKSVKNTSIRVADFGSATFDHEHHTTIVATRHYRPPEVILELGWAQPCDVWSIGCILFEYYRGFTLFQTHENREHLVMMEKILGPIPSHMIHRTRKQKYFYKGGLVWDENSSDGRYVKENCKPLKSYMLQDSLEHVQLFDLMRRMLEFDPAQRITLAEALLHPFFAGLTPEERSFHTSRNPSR
In short: as §1

DYRK1A = DYRK1A (Homo sapiens (Human), UniProt Q13627); assay: scanMAX Kinase assay panel; assay type: binding; details: read-out: % control
In short: as §1

CLK1 = CLK1 (Homo sapiens (Human), UniProt P49759); assay: scanMAX Kinase assay panel; assay type: binding; details: read-out: % control
CLK1, sequence (P49759 whole entry): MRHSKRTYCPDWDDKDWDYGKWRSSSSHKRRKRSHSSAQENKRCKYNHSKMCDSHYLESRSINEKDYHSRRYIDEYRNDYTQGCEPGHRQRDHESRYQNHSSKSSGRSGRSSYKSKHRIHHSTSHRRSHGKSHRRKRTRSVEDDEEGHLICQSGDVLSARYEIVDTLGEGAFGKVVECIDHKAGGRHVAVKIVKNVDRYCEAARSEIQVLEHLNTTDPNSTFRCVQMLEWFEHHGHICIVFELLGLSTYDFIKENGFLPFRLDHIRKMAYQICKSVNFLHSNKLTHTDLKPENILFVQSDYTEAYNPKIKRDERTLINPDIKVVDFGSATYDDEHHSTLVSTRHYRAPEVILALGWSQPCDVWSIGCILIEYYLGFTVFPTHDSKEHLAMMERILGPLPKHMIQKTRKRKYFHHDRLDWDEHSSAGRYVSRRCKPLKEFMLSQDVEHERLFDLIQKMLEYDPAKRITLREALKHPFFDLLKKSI
In short: as §1

DYRK2 = DYRK2 (Homo sapiens (Human), UniProt Q92630); assay: scanMAX Kinase assay panel; assay type: binding; details: read-out: % control
DYRK2, sequence (Q92630 whole entry): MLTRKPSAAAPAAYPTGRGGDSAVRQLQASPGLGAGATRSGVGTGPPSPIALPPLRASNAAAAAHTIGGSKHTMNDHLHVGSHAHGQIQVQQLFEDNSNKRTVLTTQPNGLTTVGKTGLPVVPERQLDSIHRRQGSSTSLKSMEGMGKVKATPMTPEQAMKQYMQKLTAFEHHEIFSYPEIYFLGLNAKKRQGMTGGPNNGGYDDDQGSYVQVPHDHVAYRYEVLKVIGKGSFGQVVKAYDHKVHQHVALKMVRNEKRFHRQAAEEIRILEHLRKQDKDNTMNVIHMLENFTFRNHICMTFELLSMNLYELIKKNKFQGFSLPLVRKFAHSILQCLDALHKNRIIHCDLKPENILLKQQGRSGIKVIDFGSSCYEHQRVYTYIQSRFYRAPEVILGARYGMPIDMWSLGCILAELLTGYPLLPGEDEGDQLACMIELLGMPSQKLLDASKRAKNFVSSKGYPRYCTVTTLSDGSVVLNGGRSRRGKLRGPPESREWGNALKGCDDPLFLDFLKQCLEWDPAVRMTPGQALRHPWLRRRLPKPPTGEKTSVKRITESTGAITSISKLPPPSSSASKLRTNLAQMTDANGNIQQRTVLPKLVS
In short: as §1

CLK2 = CLK2 (Homo sapiens (Human), UniProt P49760); assay: scanMAX Kinase assay panel; assay type: binding; details: read-out: % control
CLK2, sequence (P49760 whole entry): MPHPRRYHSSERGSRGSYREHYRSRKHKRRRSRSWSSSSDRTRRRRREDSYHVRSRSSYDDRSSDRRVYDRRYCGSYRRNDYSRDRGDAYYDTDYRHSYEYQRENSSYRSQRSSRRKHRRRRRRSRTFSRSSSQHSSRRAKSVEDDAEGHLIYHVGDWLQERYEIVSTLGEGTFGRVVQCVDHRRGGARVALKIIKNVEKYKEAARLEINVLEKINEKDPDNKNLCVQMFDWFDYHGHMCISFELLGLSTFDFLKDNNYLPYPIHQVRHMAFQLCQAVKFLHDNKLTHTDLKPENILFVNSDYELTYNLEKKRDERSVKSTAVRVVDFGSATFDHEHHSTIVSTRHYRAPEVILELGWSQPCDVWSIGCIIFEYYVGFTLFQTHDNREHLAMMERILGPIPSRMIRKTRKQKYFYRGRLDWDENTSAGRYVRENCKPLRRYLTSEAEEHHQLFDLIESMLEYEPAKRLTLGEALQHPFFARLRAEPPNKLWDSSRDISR
In short: as §1

DYRK1B = DYRK1B (Homo sapiens (Human), UniProt Q9Y463); assay: scanMAX Kinase assay panel; assay type: binding; details: read-out: % control
DYRK1B, sequence (Q9Y463 whole entry): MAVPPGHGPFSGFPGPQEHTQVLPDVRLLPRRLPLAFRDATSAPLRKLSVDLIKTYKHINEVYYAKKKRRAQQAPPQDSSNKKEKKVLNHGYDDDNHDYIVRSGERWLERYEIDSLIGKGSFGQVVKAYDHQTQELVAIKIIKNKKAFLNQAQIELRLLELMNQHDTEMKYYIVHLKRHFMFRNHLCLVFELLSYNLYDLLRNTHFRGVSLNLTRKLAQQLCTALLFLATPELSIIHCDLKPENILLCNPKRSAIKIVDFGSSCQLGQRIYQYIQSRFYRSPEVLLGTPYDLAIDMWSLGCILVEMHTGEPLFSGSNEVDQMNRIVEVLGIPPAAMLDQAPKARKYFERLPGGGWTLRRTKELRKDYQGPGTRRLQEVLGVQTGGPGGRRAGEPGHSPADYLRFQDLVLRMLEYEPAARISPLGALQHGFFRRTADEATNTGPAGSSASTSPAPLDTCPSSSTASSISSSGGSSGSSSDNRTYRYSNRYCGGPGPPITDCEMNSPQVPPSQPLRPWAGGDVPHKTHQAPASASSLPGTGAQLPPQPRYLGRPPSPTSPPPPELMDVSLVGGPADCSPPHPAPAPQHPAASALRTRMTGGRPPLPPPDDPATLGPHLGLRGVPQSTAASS
In short: as §1

CLK4 = CLK4 (Homo sapiens (Human), UniProt Q9HAZ1); assay: scanMAX Kinase assay panel; assay type: binding; details: read-out: % control
CLK4, sequence (Q9HAZ1 whole entry): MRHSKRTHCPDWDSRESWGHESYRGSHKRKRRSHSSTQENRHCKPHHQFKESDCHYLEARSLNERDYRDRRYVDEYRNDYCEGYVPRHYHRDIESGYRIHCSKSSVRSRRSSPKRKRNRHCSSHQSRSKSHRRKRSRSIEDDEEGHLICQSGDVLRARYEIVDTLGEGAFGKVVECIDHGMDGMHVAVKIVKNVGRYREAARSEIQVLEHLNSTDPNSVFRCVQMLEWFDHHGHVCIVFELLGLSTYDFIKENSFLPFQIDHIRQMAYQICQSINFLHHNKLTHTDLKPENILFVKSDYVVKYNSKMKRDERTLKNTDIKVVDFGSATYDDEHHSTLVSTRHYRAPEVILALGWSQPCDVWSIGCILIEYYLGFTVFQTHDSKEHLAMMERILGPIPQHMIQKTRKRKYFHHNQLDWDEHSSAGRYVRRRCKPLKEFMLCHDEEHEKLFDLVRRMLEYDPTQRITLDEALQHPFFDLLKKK
In short: as §1

Compound	long term memory (preference for the new object) (5× FAD mice [1])	immunoreactivity of AT180 in the cerebral cortex region (5× FAD mice [2])	immunoreactivity of AT180 in the hippocampus (5× FAD mice [2])	increase of the cell number (mouse pancreatic β-cell; Ki-67/insulin double-stained cells, 72 hours) [times]	cell proliferation (mouse pancreatic β-cell; mouse pancreatic β-cells cultured with compound for 72 hours)	short term memory (Y-maze alternation behavior) (5× FAD mice [3])	remaining binding at 1 µM (CSNK1E) [%]	remaining binding at 1 µM (CDK5) [%]	remaining binding at 1 µM (GSK3B) [%]	remaining binding at 1 µM (CLK3) [%]	remaining binding at 1 µM (DYRK1A) [%]	remaining binding at 1 µM (CLK1) [%]	remaining binding at 1 µM (DYRK2) [%]	remaining binding at 1 µM (CLK2) [%]	remaining binding at 1 µM (DYRK1B) [%]	remaining binding at 1 µM (CLK4) [%]
CCNc1cc(Nc2ccc(C(=O)N3CCC(N4CCOCC4)CC3)cc2OC)nc2[nH]cc(C(F)(F)F)c12 [Example 57, (4-((4-(ethylamino)-3-(trifluoromethyl)-1H-pyrrolo[2,3-b]pyridin-6-yl)amino)-3-methoxyphenyl) (4-morpholinopiperidin-1-yl)methanone]	improved long term memory	no significant change	significantly reduced	5	active	improved short term memory										
CCNc1cc(Nc2ccc(C(=O)N3CCC(N4CCOCC4)CC3)cc2OC)nc2[nH]cc(C#N)c12 [Example 18, 4-(ethylamino)-6-((2-methoxy-4-(4-morpholinopiperidine-1-carbonyl)phenyl)amino)-1H-pyrrolo[2,3-b]pyridine-3-carbonitrile]							0.6	100	97	73	2	1.9	14	8.5	4	4
